Tests used:
PxTAR1 [1] = molecular target: T1, PxTAR1 (Plutella xylostella, UniProt A0A4D6I7S9); experiment: intracellular Ca2+ assay, Cal-590 AM, confocal imaging, stable HEK-293 line; format: cell-based
T1 construct: gene tar1; full-length ORF, 467 residues, 52266 Da; lentiviral vector pEB-TAR1-3flag-copGFP(T2A)PURO (3flag tag, GFP co-expressed via T2A)
T1 sequence (A0A4D6I7S9 1-467): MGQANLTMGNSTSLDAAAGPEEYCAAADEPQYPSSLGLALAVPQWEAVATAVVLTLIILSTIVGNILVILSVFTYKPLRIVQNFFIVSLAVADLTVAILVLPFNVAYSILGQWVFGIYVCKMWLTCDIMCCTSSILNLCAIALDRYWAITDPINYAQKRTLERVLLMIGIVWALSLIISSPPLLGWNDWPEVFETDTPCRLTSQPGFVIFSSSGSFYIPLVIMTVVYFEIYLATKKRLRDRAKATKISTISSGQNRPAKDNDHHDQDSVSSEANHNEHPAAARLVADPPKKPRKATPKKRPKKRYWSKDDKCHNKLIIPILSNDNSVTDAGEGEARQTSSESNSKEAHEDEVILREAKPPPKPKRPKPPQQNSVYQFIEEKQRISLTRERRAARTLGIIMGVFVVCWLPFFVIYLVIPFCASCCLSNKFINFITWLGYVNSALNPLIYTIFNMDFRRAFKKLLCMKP

PxTAR1 [2] = molecular target: T1, PxTAR1; experiment: cAMP ELISA (Parameter Assay Kit), TAR1/[…] cells; format: cell-based

SMILES: NCCc1ccc(O)cc1 [tyramine]
- EC50 (PxTAR1 [1]): 13.1 nM
- IC50 (PxTAR1 [2]): 446 nM

SMILES: C=C(C)[C@@H]1CC=C(C)C(=O)C1 [L(-)-carvone]
- EC50 (PxTAR1 [1]): 1.15 nM

SMILES: NC[C@H](O)c1ccc(O)cc1 [octopamine]
- IC50 (PxTAR1 [2]): 13700 nM

SMILES: CNC=Nc1ccc(C)cc1C [DPMF, N2-(2,4-Dimethylphenyl)-N1-methyformamidine]
- EC50 (PxTAR1 [1]): 84.5 nM

Reference: PMC6627746, “Pharmacological Properties of the Type 1 Tyramine Receptor in the Diamondback Moth, Plutella xylostella” (International Journal of Molecular Sciences, 2019)
